What was measured:
[1] = biological target: T1, Human Factor XIIa (hFXIIa) (Homo sapiens, UniProt P00748); test: Determination of Human Factor XIIa (hFXIIa) inhibition, fluorogenic substrate IC50 assay; format: biochemical; details: fluorogenic substrate H-DPro-Phe-Arg-AFC at Km, 25° C., read-out: Human FXIIa IC50
T1 construct: purchased Enzyme Research Laboratories
T1 sequence (P00748 373-615 limits assumed): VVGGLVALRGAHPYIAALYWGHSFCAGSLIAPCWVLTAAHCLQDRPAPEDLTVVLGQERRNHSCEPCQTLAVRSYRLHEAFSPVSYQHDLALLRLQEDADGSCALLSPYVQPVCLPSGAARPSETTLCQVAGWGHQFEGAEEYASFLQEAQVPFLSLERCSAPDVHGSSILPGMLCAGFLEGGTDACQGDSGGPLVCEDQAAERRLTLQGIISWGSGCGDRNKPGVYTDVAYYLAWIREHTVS
T1 sequence (P00748 20-372 partner limits assumed): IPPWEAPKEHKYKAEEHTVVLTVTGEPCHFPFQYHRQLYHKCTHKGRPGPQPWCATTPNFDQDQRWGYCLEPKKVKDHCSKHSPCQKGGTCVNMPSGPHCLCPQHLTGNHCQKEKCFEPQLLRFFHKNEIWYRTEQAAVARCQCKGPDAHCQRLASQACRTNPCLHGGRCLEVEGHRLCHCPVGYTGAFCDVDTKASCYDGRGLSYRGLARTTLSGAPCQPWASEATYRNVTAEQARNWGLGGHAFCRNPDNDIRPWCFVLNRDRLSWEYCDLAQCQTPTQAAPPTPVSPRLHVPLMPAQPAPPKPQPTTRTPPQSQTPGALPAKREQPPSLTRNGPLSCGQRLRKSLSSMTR
Description: Determination of Human Factor XIIa (hFXIIa) inhibition
The Km for the cleavage of the substrate by hFXIIa was determined by standard transformation of the Michaelis-Menten equation, with subsequent inhibition assays performed at substrate Km concentration.

FXa = FXa (Homo sapiens, UniProt P00742); test: Related protease inhibition: FXa, fluorogenic substrate; format: biochemical; details: fluorogenic substrate at Km, 25° C.; H1-H3 = % activity at 40 μM
FXa, sequence (P00742 235-488 limits assumed): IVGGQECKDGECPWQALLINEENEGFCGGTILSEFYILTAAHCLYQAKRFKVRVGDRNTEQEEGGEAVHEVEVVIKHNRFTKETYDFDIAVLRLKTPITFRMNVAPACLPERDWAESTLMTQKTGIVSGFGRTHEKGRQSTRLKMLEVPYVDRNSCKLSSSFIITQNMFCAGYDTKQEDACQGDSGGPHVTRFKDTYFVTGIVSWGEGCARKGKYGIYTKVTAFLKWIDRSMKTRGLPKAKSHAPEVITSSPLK
FXa, sequence (P00742 41-179 partner limits assumed): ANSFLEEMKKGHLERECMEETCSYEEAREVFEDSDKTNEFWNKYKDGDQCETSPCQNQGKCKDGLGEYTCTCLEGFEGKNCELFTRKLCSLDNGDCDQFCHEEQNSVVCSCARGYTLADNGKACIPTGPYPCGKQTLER
Description: Human serine protease enzyme Plasma Kallikrein, KLK1, FXa, Plasmin, Thrombin and Trypsin were assayed for enzymatic activity using an appropriate fluorogenic substrate at Km concentration, FXIa at fixed substrate concentration of 100 μM and various concentrations of the test compound.

Work on `Cc1nc2c(CNC(=O)C3CC3)nn(-c3cccc(Cl)c3)c2c(=O)n1-c1ccc2c(c1)CN(CCO)CC2` [Example 3008, N-((1-(3-chlorophenyl)-6-(2-(2-hydroxyethyl)-1,2,3,4-tetrahydroisoquinolin-7-yl)-5-methyl-7-oxo-6,7-dihydro-1H-pyrazolo[4,3-d]pyrimidin-3-yl)methyl)cyclopropanecarboxamide] yielded an IC50 [1] of 0.3 to 1 µM and an IC50 (FXa) of 3 to 10 µM.
`CN1CCc2ccc(N3CCc4c(C(=O)NC(C(=O)O)c5cccnc5)nn(-c5cccc(Cl)c5)c4C3=O)cc2C1=O` (centres unmarked) [Example 1328, 2-(1-(3-chlorophenyl)-6-(2-methyl-1-oxo-1,2,3,4-tetrahydroisoquinolin-7-yl)-7-oxo-4,5,6,7-tetrahydro-1H-pyrazolo[3,4-c]pyridine-3-carboxamido)-2-(pyridin-3-yl)acetic acid] gave an IC50 [1] of 0.3 to 1 µM and an IC50 (FXa) of 3 to 10 µM.
`Cc1cnnc(CNC(=O)c2nn(-c3cccc(Cl)c3)c3c2CCN(c2ccc4c(c2)C(=O)N(C)CC4)C3=O)c1` [Example 1282, 1-(3-chlorophenyl)-6-(2-methyl-1-oxo-1,2,3,4-tetrahydroisoquinolin-7-yl)-N-((5-methylpyridazin-3-yl)methyl)-7-oxo-4,5,6,7-tetrahydro-1H-pyrazolo[3,4-c]pyridine-3-carboxamide] was tested, and the IC50 [1] was 0.3 to 1 µM and the IC50 (FXa) was > 40 µM.
In the case of `CCN1CCOc2ccc(N3CCc4c(C(=O)NCc5cnccc5C)nn(-c5cccc(Cl)c5)c4C3=O)cc2C1=O` [Example 1318, 1-(3-chlorophenyl)-6-(4-ethyl-5-oxo-2,3,4,5-tetrahydrobenzo[f][1,4]oxazepin-7-yl)-N-((4-methylpyridin-3-yl)methyl)-7-oxo-4,5,6,7-tetrahydro-1H-pyrazolo[3,4-c]pyridine-3-carboxamide], the IC50 [1] is reported as 0.01 to 0.1 µM and the IC50 (FXa) is reported as 3 to 10 µM.
In the case of `Cc1ccc(CNC(=O)c2nn(-c3cccc(Cl)c3)c3c2CCN(c2ccc4c(c2)C(=O)N(C)CC4)C3=O)nn1` [Example 1267, 1-(3-chlorophenyl)-6-(2-methyl-1-oxo-1,2,3,4-tetrahydroisoquinolin-7-yl)-N-((6-methylpyridazin-3-yl)methyl)-7-oxo-4,5,6,7-tetrahydro-1H-pyrazolo[3,4-c]pyridine-3-carboxamide], the IC50 [1] is reported as 0.3 to 1 µM and the IC50 (FXa) is reported as > 40 µM.
With `Cc1cc(CNC(=O)c2nn(-c3cccc(Cl)c3)c3c2CCN(c2ccc4c(c2)C(=O)N(C)CC(=O)N4C)C3=O)n[nH]1` [Example 1370, 1-(3-chlorophenyl)-6-(1,4-dimethyl-2,5-dioxo-2,3,4,5-tetrahydro-1H-benzo[e][1,4]diazepin-7-yl)-N-((5-methyl-1H-pyrazol-3-yl)methyl)-7-oxo-4,5,6,7-tetrahydro-1H-pyrazolo[3,4-c]pyridine-3-carboxamide] the IC50 [1] was 0.3 to 1 µM and the IC50 (FXa) was 10 to 40 µM.
`Cc1cn(C)nc1CNC(=O)c1nn(-c2cccc(Cl)c2)c2c1CCN(c1ccc3c(c1)CN(CCO)CC3)C2=O` [Example 1157, 1-(3-chlorophenyl)-N-((1,4-dimethyl-1H-pyrazol-3-yl)methyl)-6-(2-(2-hydroxyethyl)-1,2,3,4-tetrahydroisoquinolin-7-yl)-7-oxo-4,5,6,7-tetrahydro-1H-pyrazolo[3,4-c]pyridine-3-carboxamide] showed an IC50 [1] of 0.01 to 0.1 µM and an IC50 (FXa) of 10 to 40 µM.
`Cc1ccncc1CNC(=O)c1nn(-c2cccc(Cl)c2)c2c1CCN(c1cccc(CN3CCCCC3)c1)C2=O` [Example 1177, 1-(3-chlorophenyl)-N-((4-methylpyridin-3-yl)methyl)-7-oxo-6-(3-(piperidin-1-ylmethyl)phenyl)-4,5,6,7-tetrahydro-1H-pyrazolo[3,4-c]pyridine-3-carboxamide] was tested, and the IC50 [1] was 0.01 to 0.1 µM and the IC50 (FXa) was > 40 µM.
For `CN1CCCc2ccc(N3CCc4c(C(=O)NCC5CC5)nn(-c5cccc(Cl)c5)c4C3=O)cc2C1=O` [Example 1239, 1-(3-chlorophenyl)-N-(cyclopropylmethyl)-6-(2-methyl-1-oxo-2,3,4,5-tetrahydro-1H-benzo[c]azepin-8-yl)-7-oxo-4,5,6,7-tetrahydro-1H-pyrazolo[3,4-c]pyridine-3-carboxamide], the IC50 [1] was 0.1 to 0.3 µM and the IC50 (FXa) was 10 to 40 µM.
`Cc1ccncc1CNC(=O)c1nn(-c2cccc(Cl)c2)c2c1CCN(c1ccc3c(c1)C(=O)N(CCCO)CCO3)C2=O` [Example 1376, 1-(3-chlorophenyl)-6-(4-(3-hydroxypropyl)-5-oxo-2,3,4,5-tetrahydrobenzo[f][1,4]oxazepin-7-yl)-N-((4-methylpyridin-3-yl)methyl)-7-oxo-4,5,6,7-tetrahydro-1H-pyrazolo[3,4-c]pyridine-3-carboxamide] gave an IC50 [1] of 0.01 to 0.1 µM and an IC50 (FXa) of 3 to 10 µM.
Work on `O=C(NCc1cncc(F)c1)c1nn(-c2cccc(Cl)c2)c2c1CCN(c1ccc3c(c1)CN(CCO)CC3)C2=O` [Example 1137, 1-(3-chlorophenyl)-N-((5-fluoropyridin-3-yl)methyl)-6-(2-(2-hydroxyethyl)-1,2,3,4-tetrahydroisoquinolin-7-yl)-7-oxo-4,5,6,7-tetrahydro-1H-pyrazolo[3,4-c]pyridine-3-carboxamide] yielded an IC50 [1] of 0.01 to 0.1 µM and an IC50 (FXa) of 10 to 40 µM.
In the case of `CS(=O)(=O)CCN1CCc2ccc(N3CCc4c(C(=O)NCC5CC5)nn(-c5cccc(Cl)c5)c4C3=O)cc2C1` [Example 1176, 1-(3-chlorophenyl)-N-(cyclopropylmethyl)-6-(2-(2-(methylsulfonyl)ethyl)-1,2,3,4-tetrahydroisoquinolin-7-yl)-7-oxo-4,5,6,7-tetrahydro-1H-pyrazolo[3,4-c]pyridine-3-carboxamide], the IC50 [1] is reported as 0.3 to 1 µM and the IC50 (FXa) is reported as > 40 µM.
For `CCN1Cc2cc(N3CCc4c(C(=O)NCc5cnccc5C)nn(-c5cccc(Cl)c5)c4C3=O)ccc2[C@@H](C)C1` [Example 1158, (R)-1-(3-chlorophenyl)-6-(2-ethyl-4-methyl-1,2,3,4-tetrahydroisoquinolin-7-yl)-N-((4-methylpyridin-3-yl)methyl)-7-oxo-4,5,6,7-tetrahydro-1H-pyrazolo[3,4-c]pyridine-3-carboxamide], the IC50 [1] was 0.01 to 0.1 µM and the IC50 (FXa) was 10 to 40 µM.
With `O=C(OCc1ccccc1)c1nn(-c2cccc(Cl)c2)c2c1CCN(c1cccc(CN3CCCCC3)c1)C2=O` [Example 1006, benzyl 1-(3-chlorophenyl)-7-oxo-6-(3-(piperidin-1-ylmethyl)phenyl)-4,5,6,7-tetrahydro-1H-pyrazolo[3,4-c]pyridine-3-carboxylate] the IC50 [1] was 0.3 to 1 µM and the IC50 (FXa) was 10 to 40 µM.
Molecule `CCNC(=O)c1nn(-c2cccc(Cl)c2)c2c1CCN(c1ccc3c(c1)C(=O)N(CC)CCO3)C2=O` [Example 1371, 1-(3-chlorophenyl)-N-ethyl-6-(4-ethyl-5-oxo-2,3,4,5-tetrahydrobenzo[f][1,4]oxazepin-7-yl)-7-oxo-4,5,6,7-tetrahydro-1H-pyrazolo[3,4-c]pyridine-3-carboxamide] has an IC50 [1] of 0.1 to 0.3 µM and an IC50 (FXa) of 10 to 40 µM.
`O=C(NCc1ncccc1F)c1nn(-c2cccc(Cl)c2)c2c1CCN(c1ccc3c(c1)CN(CCO)CC3)C2=O` [Example 1130, 1-(3-chlorophenyl)-N-((3-fluoropyridin-2-yl)methyl)-6-(2-(2-hydroxyethyl)-1,2,3,4-tetrahydroisoquinolin-7-yl)-7-oxo-4,5,6,7-tetrahydro-1H-pyrazolo[3,4-c]pyridine-3-carboxamide] gave an IC50 [1] of 0.01 to 0.1 µM and an IC50 (FXa) of 10 to 40 µM.
`CO[C@H]1CCOC[C@H]1NC(=O)c1nn(-c2cccc(Cl)c2)c2c1CCN(c1ccc3c(c1)C(=O)N(C)CC3)C2=O` [Example 1265, 1-(3-chlorophenyl)-N-((3R,4S)-4-methoxytetrahydro-2H-pyran-3-yl)-6-(2-methyl-1-oxo-1,2,3,4-tetrahydroisoquinolin-7-yl)-7-oxo-4,5,6,7-tetrahydro-1H-pyrazolo[3,4-c]pyridine-3-carboxamide] was tested, and the IC50 [1] was 0.3 to 1 µM and the IC50 (FXa) was > 40 µM.
With `Cc1cc(CNC(=O)c2nn(-c3cccc(Cl)c3)c3c2CCN(c2ccc4c(c2)C(=O)N(CCO)[C@@H](C)CO4)C3=O)n[nH]1` [Example 1380, (S)-1-(3-chlorophenyl)-6-(4-(2-hydroxyethyl)-3-methyl-5-oxo-2,3,4,5-tetrahydrobenzo[f][1,4]oxazepin-7-yl)-N-((5-methyl-1H-pyrazol-3-yl)methyl)-7-oxo-4,5,6,7-tetrahydro-1H-pyrazolo[3,4-c]pyridine-3-carboxamide] the IC50 [1] was 0.3 to 1 µM and the IC50 (FXa) was 10 to 40 µM.
With `CN1CCc2ccc(N3CCc4c(COCC(=O)O)nn(-c5cccc(Cl)c5)c4C3=O)cc2C1=O` [Example 1358, 2-((1-(3-chlorophenyl)-6-(2-methyl-1-oxo-1,2,3,4-tetrahydroisoquinolin-7-yl)-7-oxo-4,5,6,7-tetrahydro-1H-pyrazolo[3,4-c]pyridin-3-yl)methoxy)acetic acid] the IC50 [1] was 1 to 3 µM and the IC50 (FXa) was 3 to 10 µM.

— patent US20260132132A1, “3A,4,5,6-TETRAHYDRO-1 H-PYRAZOLO[3,4-C]PYRIDIN-7(7AH)-ONE DERIVATIVES AS FACTOR XIIA INHIBITORS” (KALVISTA PHARMACEUTICALS LIMITED, priority 2022, published 2026)
